Reference: article PMC8949893, “Chemical Synthesis, Pharmacokinetic Properties and Biological Effects of JM-00266, a Putative Non-Brain Penetrant Cannabinoid Receptor 1 Inverse Agonist” (International Journal of Molecular Sciences, 2022)

Experiments:
[1] = Plasma kinetic profile after i.p., oral or intravenous administration; format: in vivo, mice; settings: for Time of peak drug plasma concentration / Maximal drug plasma concentration: mice; for Maximal drug plasma concentration: n = 4
Protocol: At 1, 2, 4 and 8 h post-administration, animals were killed by cervical dislocation and blood was collected from the vena cava into tubes containing heparin and centrifuged immediately at 6500× g for 10 min at 4 °C. For determination of tissue distribution, brain, liver and adipose tissue were collected 4 h post-gavage. Plasma and tissue samples were directly extracted for further analysis by Liquid chromatography coupled to tandem mass spectrometry (LC-MS/MS).
Tissues were homogenized with a mini-bead beater (BioSpec Products, Bartlesville, OK) in 10 volumes of acetonitrile containing 15 ng of internal standard, JM-00252. Blood samples were centrifuged at 6500× g during 10 min 4 °C and 5 µL of plasma were diluted in 10 volumes of acetonitrile containing 15 ng of internal standard. Then, each homogenate of tissue or plasma was centrifuged for 10 min at 6500× g and the supernatant was recovered and carefully transferred to new glass tubes. Finally, the extract was injected into a 1200 LC system coupled to a 6460-QqQ MS/MS system equipped with a JetStream ESI source (Agilent technologies, Les Ulis, France). Separation was achieved on a Poroshell 120 EC-C8 2.1 mm × 100 mm, 2.7 µm column (Agilent technologies) at a flow rate of 0.4 mL.min^−1, 55 °C, with a linear gradient of (solvent A) water containing 1 mM ammonium formate and 0.2% formic acid and (solvent B) methanol containing 1 mM ammonium formate and 0.2% formic acid and as follows: 50% B for 1 min, up to 100% B in 4 min, and then maintained at 100% for 2 min. The acquisition was performed in positive Single Reaction Monitoring (SRM) mode (source temperature: 300 °C, nebulizer gas flow rate was 10 L·min^−1, 15 psi, sheath gas flow 7 L·min^−1, temperature 225 °C, capillary 4000 V, nozzle 1500 V). […] Results are expressed as ng·g^−1 for tissues and ng·mL^−1 for plasma.

mice [2] = assay: Body (rectal) temperature measurement; format: in vivo
Protocol: Mice rectal temperature was assessed using a VT4810 controller (Vertex Technology Corp., New Taipei City, Taiwan) adapted with a mouse rectal probe. In the first experiment, the impact of anandamide (10 mg·kg^−1) on body temperature was recorded during 30 min on animals injected either 20 min earlier with vehicle or JM-00266 (20 mg·kg^−1).

mice [3] = assay: Open field test (anxiety-related behavior); format: in vivo; settings: 10 mg·kg−1 i.p. 30 min before, 10 min exploration
Protocol: Anxiety-related behavior was assessed using the open field test (OF; Mouse Open Field Arena ENV-510; Med Associates Inc., Fairfax, VT, USA). […] The two regions were defined by grid lines that divided each box into the center and periphery, with each of the four lines being 11 cm from each wall.

mice [4] = assay: Gastro-intestinal transit (charcoal marker); format: in vivo; settings: JM-00266 10 mg·kg−1 10 min before anandamide 10 mg·kg−1
Protocol: Short-term effects of JM-00266 on gastro-intestinal transit were tested as an indicator of peripheral CB1R activity. Transit was measured by administering a non-absorbed marker (10% charcoal suspension in 5% gum arabic) as previously described.

CB1R−/− mice = assay: Oral glucose tolerance test (OGTT) in CB1R−/− mice; format: in vivo; settings: 10 mg·kg−1 i.p. 10 min before glucose gavage
Protocol: To test acute effects of JM-00266 on glucose metabolism and their specificity to CB1R, C57BL/6 wild type mice and CB1R^−/− mice fasted for 6 h were subjected to an oral glucose tolerance test (OGTT, 2 g·kg^−1 glucose) and to an insulin tolerance test (ITT) using 0.5 UI·kg^−1 insulin (Actrapid, Novo Nordisk, La Défense, France) 10 min after i.p. injection of JM-00266 (10 mg·kg^−1) or vehicle. For both tests, glycemia was monitored during 120 min post-injection with a My Life Pura TM glucose meter (Ypsomed, Paris, France) directly on a blood drop from the tail. Corresponding AUC0–2 h were calculated.

mice [5] = assay: In vivo lipolysis: plasma glycerol appearance after BRL37344; settings: JM-00266 i.p. 4 h before BRL37344 5 mg·kg−1 i.p.
Protocol: In vivo experiments. Overnight-fasted mice were injected i.p. with JM-00266 (mg·kg^−1) or vehicle. Four hours later, mice were injected i.p. with the specific ß3-adrenergic receptor agonist, BRL37344 (5 mg·kg^−1). Blood samples (~25 µL) were collected from tails in tubes containing EDTA (Sarstedt, Nümbrecht, Germany) at times 0, 15, 30, 45 and 60 min after BRL37344 injection to measure plasma glycerol appearance using a colorimetric assay (glycerol FS, DiaSys, Condom, France).

With `CSc1ccc(C2C(N3C(=O)c4ccccc4C3=O)C(=O)N2c2ccc(SC)cc2)cc1` (stereo not shown) [JM-00266, 1,4-di-(4-méthylthiophenyl)-3-phthaloylazetidin-2-one] the “Plasma clearance compared with Rimonabant” value ([1]; intravenous administration) was “slightly higher clearance”, the “Time of peak drug plasma concentration” value ([1]; i.p. 10 mg·kg−1, DMSO/Tween solution) was 30 min and the “Maximal drug plasma concentration” value ([1]; i.p. 10 mg·kg−1, mean ± SEM) was 378 ± 27 ng/mL. For the same compound, the “Time of peak drug plasma concentration” value ([1]; oral 10 mg·kg−1, dissolved in oil) was 60 min, the “Maximal drug plasma concentration” value ([1]; oral 10 mg·kg−1, mean ± SEM) was 203 ± 18 ng/mL and the “Effect on anandamide-induced decrease in rectal temperature” value (mice [2]; JM-00266 20 mg·kg−1 20 min before anandamide 10 mg·kg−1, 30 min recording) was “not able to counteract the decrease in rectal temperature”. For the same compound, the “Effect on hypothermic response to ACEA” value (mice [2]; pre-treatment 20 min before ACEA 1 mg·kg−1, Rimonabant 10 mg·kg−1, JM-00266 20 mg·kg−1, t = 30 min) was “had no effect”, the “Open field: locomotor activity (total ambulatory distance)” value (mice [3]) was “did not alter” and the “Open field: number of center entries” value (mice [3]) was “did not alter”. The “Open field: time spent in the center” value (mice [3]) was “did not alter”, the “Effect on anandamide-induced slowing down of gastro-intestinal transit” value (mice [4]) was “abrogated” and the “Glucose tolerance (OGTT) vs vehicle” value (CB1R−/− mice) was “failed to improve glucose tolerance”. The “ß-adrenergic-induced glycerol production (plasma glycerol) vs vehicle” value (mice [5]) was “increased”.
